Assay results taken from the supplement of paper PMC7017272.
± gives the standard deviation of the averaged measurements. Each block holds one molecule with its values, some of them ahead of it.

What was measured:
Conditions in all cases: treatment time: 3 days
UT-SCC-24A [1] = assay: relative IC50 (midpoint of the fitted curve; maximal inhibition may be below 50%); higher = less potent
Procedure: (§1)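 HNSCC cell lines (500 cells/well, 384-well) were cultured on plastic, on top of (2D) or embedded (3D) in Matrigel or human leiomyoma matrix Myogel (500 ug/mL; Myogel 3D mixed with rat collagen I). Cells were treated for 3 days with 5 ten-fold concentrations of each drug, and viability was read by CellTiter-Glo. Viability was normalised to DMSO (0% inhibition) and 100 uM benzethonium chloride (100% inhibition) controls and fitted with the FIMM DSRT pipeline to give IC50 (nM), maximal % inhibition and the drug sensitivity score (DSS). Suffixes _1/_2/_3 on drug names are replicates.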

UT-SCC-42A = assay: relative IC50 (midpoint of the fitted curve; maximal inhibition may be below 50%); higher = less potent
Outline: (§2)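 Viability was read with CellTiter-Glo 2.0 luminescence and scaled against vehicle (0.1% DMSO) and cell-killing control wells. The assay used HPV-negative HNSCC cell lines at 500 cells/well in 384-well plates, grown on plastic, on Matrigel or Myogel coatings (500 µg/mL), or embedded in Matrigel or Myogel plus rat collagen I, and treated for 3 days at five 10-fold concentrations. IC50, maximal inhibition and drug sensitivity score were derived from percent-inhibition dose–response curves fitted in the FIMM pipeline.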

UT-SCC-14 [2] = assay: as above
Outline: as §2

UT-SCC-40 = assay: as above
Outline: as §2

UT-SCC-106A = assay: as above
Outline: as §2

UT-SCC-81 = assay: as above
Outline: as §2

UT-SCC-73 = assay: as above
Outline: as §2

UT-SCC-28 = assay: as above
Outline: as §2

UT-SCC-42B = assay: as above
Outline: as §2

UT-SCC-44 = assay: as above
Outline: as §2

UT-SCC-8 = assay: as above
Outline: as §2

UT-SCC-24B [3] = assay: as above
Outline: as §2

UT-SCC-14 [4] = assay: drug sensitivity score (DSS); higher = more sensitive; extreme values may be limits of the assay
Outline: as §2

UT-SCC-24B [5] = assay: as above
Outline: as §2

UT-SCC-24A [6] = assay: drug sensitivity score (DSS); higher = more sensitive
Procedure: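 HNSCC cell lines (500 cells/well, 384-well) were cultured on plastic, on top of (2D) or embedded (3D) in Matrigel or human leiomyoma matrix Myogel (500 ug/mL; Myogel 3D mixed with rat collagen I). Cells were treated for 3 days with 5 ten-fold concentrations of each drug, and viability was read by CellTiter-Glo. Suffixes _1/_2/_3 on drug names are replicates.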

UT-SCC-24A [7] = assay: maximal % inhibition of viability relative to DMSO; higher = stronger effect
Procedure: as §1

[8] = culture condition: embedded in Matrigel
[9] = culture condition: embedded in Myogel + collagen I
[10] = culture condition: on top of Matrigel
[11] = culture condition: on top of Myogel
[12] = culture condition: plastic 2D (no matrix)

relative IC50 (UT-SCC-24A [1]; [8]): 38.1 nM
relative IC50 (UT-SCC-24A [1]; [9]): 1010 nM
relative IC50 (UT-SCC-24A [1]; [10]): 84.8 nM
relative IC50 (UT-SCC-24A [1]; [11]): 1630 nM
relative IC50 (UT-SCC-24A [1]; [12]): 83.1 nM
relative IC50 (UT-SCC-42A; [8]): 253 nM
relative IC50 (UT-SCC-42A; [9]): 2020 nM
relative IC50 (UT-SCC-42A; [10]): 205 nM
relative IC50 (UT-SCC-42A; [11]): 1270 nM
relative IC50 (UT-SCC-42A; [12]): 238 nM
relative IC50 (UT-SCC-14 [2]; [8]): 49 nM
relative IC50 (UT-SCC-14 [2]; [9]): 970 nM
relative IC50 (UT-SCC-14 [2]; [10]): 59.1 nM
relative IC50 (UT-SCC-14 [2]; [11]): 310 nM
relative IC50 (UT-SCC-14 [2]; [12]): 61.2 nM
relative IC50 (UT-SCC-40; [8]): 48.9 nM
relative IC50 (UT-SCC-40; [9]): 1310 nM
relative IC50 (UT-SCC-40; [10]): 65.8 nM
relative IC50 (UT-SCC-40; [11]): 1270 nM
relative IC50 (UT-SCC-40; [12]): 211 nM
relative IC50 (UT-SCC-106A; [8]): 319 nM
relative IC50 (UT-SCC-106A; [9]): 2830 nM
relative IC50 (UT-SCC-106A; [10]): 171 nM
relative IC50 (UT-SCC-106A; [11]): 2270 nM
relative IC50 (UT-SCC-106A; [12]): 126 nM
relative IC50 (UT-SCC-81; [8]): 36.5 nM
relative IC50 (UT-SCC-81; [9]): 1510 nM
relative IC50 (UT-SCC-81; [10]): 52 nM
relative IC50 (UT-SCC-81; [11]): 1590 nM
relative IC50 (UT-SCC-81; [12]): 69.6 nM
relative IC50 (UT-SCC-73; [8]): 2120 nM
relative IC50 (UT-SCC-73; [9]): 2070 nM
relative IC50 (UT-SCC-73; [10]): 1660 nM
relative IC50 (UT-SCC-73; [11]): 1750 nM
relative IC50 (UT-SCC-73; [12]): 1650 nM
relative IC50 (UT-SCC-28; [8]): 3420 nM
relative IC50 (UT-SCC-28; [9]): 1510 nM
relative IC50 (UT-SCC-28; [10]): 1630 nM
relative IC50 (UT-SCC-28; [12]): 1760 nM
relative IC50 (UT-SCC-42B; [8]): 75.9 nM
relative IC50 (UT-SCC-42B; [10]): 299 nM
relative IC50 (UT-SCC-42B; [11]): 2470 nM
relative IC50 (UT-SCC-42B; [12]): 808 nM
relative IC50 (UT-SCC-44; [8]): 3360 nM
relative IC50 (UT-SCC-44; [9]): 2360 nM
relative IC50 (UT-SCC-44; [10]): 1660 nM
relative IC50 (UT-SCC-44; [11]): 2050 nM
relative IC50 (UT-SCC-44; [12]): 1910 nM
relative IC50 (UT-SCC-8; [8]): 34.9 nM
relative IC50 (UT-SCC-8; [9]): 3640 nM
relative IC50 (UT-SCC-8; [10]): 35.7 nM
relative IC50 (UT-SCC-8; [11]): 912 nM
relative IC50 (UT-SCC-8; [12]): 39.3 nM
relative IC50 (UT-SCC-24B [3]; [8]): 253 nM
relative IC50 (UT-SCC-24B [3]; [9]): 1530 nM
relative IC50 (UT-SCC-24B [3]; [10]): 234 nM
relative IC50 (UT-SCC-24B [3]; [11]): 1580 nM
relative IC50 (UT-SCC-24B [3]; [12]): 63.1 nM
Structure (SMILES): C=CC(=O)Nc1cc2c(Nc3ccc(F)c(Cl)c3)ncnc2cc1OCCCN1CCOCC1 [Canertinib]
drug sensitivity score (UT-SCC-14 [4]; [8]): 27 ± 0.3 DSS
drug sensitivity score (UT-SCC-14 [4]; [9]): 11.2 ± 2.8 DSS
drug sensitivity score (UT-SCC-14 [4]; [10]): 26.6 ± 0.94 DSS
drug sensitivity score (UT-SCC-14 [4]; [11]): 16.5 ± 2.1 DSS
drug sensitivity score (UT-SCC-14 [4]; [12]): 25.6 ± 1.9 DSS
drug sensitivity score (UT-SCC-24B [5]; [8]): 17.8 ± 0.7 DSS
drug sensitivity score (UT-SCC-24B [5]; [9]): 9.13 ± 0.25 DSS
drug sensitivity score (UT-SCC-24B [5]; [10]): 18.1 ± 0.57 DSS
drug sensitivity score (UT-SCC-24B [5]; [11]): 9.17 ± 0.12 DSS
drug sensitivity score (UT-SCC-24B [5]; [12]): 26.2 ± 0.55 DSS
drug sensitivity score (UT-SCC-24A [6]; [8]): 27.8 ± 2 DSS
drug sensitivity score (UT-SCC-24A [6]; [9]): 11 ± 3.6 DSS
drug sensitivity score (UT-SCC-24A [6]; [10]): 23.5 ± 0.87 DSS
drug sensitivity score (UT-SCC-24A [6]; [11]): 8.7 ± 0.2 DSS
drug sensitivity score (UT-SCC-24A [6]; [12]): 23.5 ± 1.5 DSS
maximal % inhibition of viability (UT-SCC-24A [7]; [8]): 99.57 ± 0.38%
maximal % inhibition of viability (UT-SCC-24A [7]; [9]): 99.17 ± 0.74%
maximal % inhibition of viability (UT-SCC-24A [7]; [10]): 99.7 ± 0.36%
maximal % inhibition of viability (UT-SCC-24A [7]; [11]): 99 ± 0.87%
maximal % inhibition of viability (UT-SCC-24A [7]; [12]): 99.5 ± 0.62%

relative IC50 (UT-SCC-24A [1]; [10]): 2.16 nM
relative IC50 (UT-SCC-24A [1]; [11]): 2.23 nM
relative IC50 (UT-SCC-24A [1]; [12]): 1.66 nM
relative IC50 (UT-SCC-42A; [8]): 5.49 nM
relative IC50 (UT-SCC-42A; [11]): 2.26 nM
relative IC50 (UT-SCC-42A; [12]): 7.63 nM
relative IC50 (UT-SCC-14 [2]; [8]): 0.458 nM
relative IC50 (UT-SCC-14 [2]; [9]): 0.654 nM
relative IC50 (UT-SCC-14 [2]; [10]): 0.765 nM
relative IC50 (UT-SCC-14 [2]; [11]): 0.33 nM
relative IC50 (UT-SCC-14 [2]; [12]): 0.458 nM
relative IC50 (UT-SCC-40; [9]): 2.84 nM
relative IC50 (UT-SCC-40; [10]): 0.896 nM
relative IC50 (UT-SCC-106A; [10]): 3.18 nM
relative IC50 (UT-SCC-106A; [11]): 4.08 nM
relative IC50 (UT-SCC-106A; [12]): 1.95 nM
relative IC50 (UT-SCC-81; [10]): 1.13 nM
relative IC50 (UT-SCC-81; [11]): 0.543 nM
relative IC50 (UT-SCC-81; [12]): 0.857 nM
relative IC50 (UT-SCC-73; [9]): 0.997 nM
relative IC50 (UT-SCC-73; [10]): 0.383 nM
relative IC50 (UT-SCC-73; [12]): 1.06 nM
relative IC50 (UT-SCC-28; [12]): 0.519 nM
relative IC50 (UT-SCC-42B; [11]): > 98.9 nM
relative IC50 (UT-SCC-44; [10]): 0.711 nM
relative IC50 (UT-SCC-44; [12]): 0.691 nM
relative IC50 (UT-SCC-8; [8]): 0.997 nM
relative IC50 (UT-SCC-8; [11]): 0.785 nM
relative IC50 (UT-SCC-8; [12]): 0.669 nM
relative IC50 (UT-SCC-24B [3]; [11]): 1 nM
Structure (SMILES): CO[C@H]1C[C@@H]2CC[C@@H](C)[C@@](O)(O2)C(=O)C(=O)N2CCCC[C@H]2C(=O)O[C@H]([C@H](C)C[C@@H]2CC[C@@H](OC(=O)C(C)(CO)CO)[C@H](OC)C2)CC(=O)[C@H](C)/C=C(\C)[C@@H](O)[C@@H](OC)C(=O)[C@H](C)C[C@H](C)/C=C/C=C/C=C/1C [Temsirolimus]
drug sensitivity score (UT-SCC-14 [4]; [8]): 15.4 ± 0.23 DSS
drug sensitivity score (UT-SCC-14 [4]; [9]): 14 ± 1.9 DSS
drug sensitivity score (UT-SCC-14 [4]; [10]): 13.3 ± 0.66 DSS
drug sensitivity score (UT-SCC-14 [4]; [11]): 13.7 ± 1.3 DSS
drug sensitivity score (UT-SCC-14 [4]; [12]): 13.1 ± 2.3 DSS
drug sensitivity score (UT-SCC-24B [5]; [8]): 5.07 ± 3.1 DSS
drug sensitivity score (UT-SCC-24B [5]; [9]): 11 ± 2.6 DSS
drug sensitivity score (UT-SCC-24B [5]; [10]): 4.3 ± 1.7 DSS
drug sensitivity score (UT-SCC-24B [5]; [11]): 6.37 ± 1.4 DSS
drug sensitivity score (UT-SCC-24B [5]; [12]): 4.77 ± 1.2 DSS
drug sensitivity score (UT-SCC-24A [6]; [8]): 10.2 ± 11 DSS
drug sensitivity score (UT-SCC-24A [6]; [9]): 9.67 ± 2.8 DSS
drug sensitivity score (UT-SCC-24A [6]; [10]): 4.9 ± 1.3 DSS
drug sensitivity score (UT-SCC-24A [6]; [11]): 5.03 ± 1.2 DSS
drug sensitivity score (UT-SCC-24A [6]; [12]): 6.07 ± 0.67 DSS
maximal % inhibition of viability (UT-SCC-24A [7]; [8]): 46.8 ± 44%
maximal % inhibition of viability (UT-SCC-24A [7]; [9]): 40.8 ± 6.7%
maximal % inhibition of viability (UT-SCC-24A [7]; [10]): 33.3 ± 6.1%
maximal % inhibition of viability (UT-SCC-24A [7]; [11]): 28.7 ± 1.9%
maximal % inhibition of viability (UT-SCC-24A [7]; [12]): 33.8 ± 2.7%
